Among the test systems are NCI-H23 lung; RPMI-8226 leukemia; UO-31 renal; SK-OV-3 ovarian; ACHN renal; OVCAR-5 ovarian; IGROV1 ovarian; SNB-19 CNS; 786-0 renal; SF-268 CNS.
Common to all, as to assay: NCI-60 cell line screen, 48 h

TGI and GI50 data for nine compounds are collected here from PubChem BioAssay (NCI).

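How tested: cells in 96-well plates exposed to compound for 48 hours at five concentrations. GI50: concentration for 50% inhibition of growth. TGI marks complete inhibition of growth.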

Consider `OCC1OC2OC3C(CO)OC(OC4C(CO)OC(OC5C(CO)OC(OC6C(CO)OC(OC7C(CO)OC(OC1C(O)C2O)C(O)C7O)C(O)C6O)C(O)C5O)C(O)C4O)C(O)C3O` (stereo not given) (tested in a mixture with another compound), for which the TGI in the test with NCI-H23 lung, in the test on RPMI-8226 leukemia, with UO-31 renal, in the test with SK-OV-3 ovarian, in the test on ACHN renal and in the test on OVCAR-5 ovarian was above 100 µM throughout. The TGI in the test on IGROV1 ovarian, in the test with SNB-19 CNS, in the test on 786-0 renal and with SF-268 CNS was above 100 µM throughout.

Turning to `Cc1nn(-c2ccccc2)c2nc3c(nc12)C1=NCCN1C(c1ccc(Cl)cc1)N3` (stereo not given), the GI50 in the test with NCI-H23 lung is 15.3 µM; with RPMI-8226 leukemia it was 2.22 µM; in the test with UO-31 renal it was 7.84 µM; in the test with SK-OV-3 ovarian it was 7.9 µM; in the test with ACHN renal, 3.62 µM; with OVCAR-5 ovarian it was 11.4 µM. Also, the GI50 in the test on IGROV1 ovarian was 11.7 µM; in the test with SNB-19 CNS, 9.91 µM; with 786-0 renal, 2.99 µM; with SF-268 CNS it was 5.61 µM. Also, the TGI is 31.6 µM in the test on NCI-H23 lung; 5.28 µM with RPMI-8226 leukemia; 21.5 µM in the test on UO-31 renal; 19.4 µM in the test with SK-OV-3 ovarian; 13.2 µM with ACHN renal; 24.3 µM in the test with OVCAR-5 ovarian. Further, the TGI was 27.4 µM with IGROV1 ovarian, 26.9 µM with SNB-19 CNS, 8.9 µM in the test on 786-0 renal and 17.6 µM in the test with SF-268 CNS.

As for `O=C(O)c1ccccc1-c1ccccc1C(=O)Nc1ccc2c(c1)[nH]c(=O)c1ccccc12`, the TGI in the test on NCI-H23 lung, with RPMI-8226 leukemia, with UO-31 renal, in the test with SK-OV-3 ovarian, in the test with ACHN renal and in the test with OVCAR-5 ovarian was above 100 µM each time. Further, the TGI with IGROV1 ovarian, with SNB-19 CNS, in the test on 786-0 renal and with SF-268 CNS was above 100 µM in each case.

Take `CN(C)C1=NC2=S(SC(Nc3ccccc3)=N2)S1` (stereo not given): the TGI with NCI-H23 lung is above 100 µM; with RPMI-8226 leukemia it was 57.1 µM; with UO-31 renal it was 61.1 µM; in the test on SK-OV-3 ovarian, 90.4 µM; with ACHN renal it was above 100 µM; with OVCAR-5 ovarian it was above 100 µM. Further, the TGI is above 100 µM in the test on IGROV1 ovarian, 97.9 µM with SNB-19 CNS, above 100 µM in the test on 786-0 renal and above 100 µM in the test on SF-268 CNS.

On to `O=C1/C(=C/c2ccccc2F)CN(C(=O)C(Cl)Cl)C/C1=C\c1ccccc1F`, for which the GI50 in the test on NCI-H23 lung was 0.389 µM; in the test on RPMI-8226 leukemia it was 0.0831 µM; in the test with UO-31 renal it was 0.44 µM; with SK-OV-3 ovarian, 1.65 µM; in the test on ACHN renal, 0.327 µM; in the test on OVCAR-5 ovarian, 0.796 µM. Further, the GI50 with IGROV1 ovarian is 0.351 µM; in the test on SNB-19 CNS, 0.349 µM; in the test with 786-0 renal it was 0.666 µM; in the test with SF-268 CNS, 0.916 µM. Moreover, the TGI stood at 1.56 µM with NCI-H23 lung; 0.935 µM with RPMI-8226 leukemia; 1.67 µM in the test with UO-31 renal; 3.28 µM in the test with SK-OV-3 ovarian; 1.09 µM in the test with ACHN renal; 2.29 µM with OVCAR-5 ovarian. Moreover, the TGI with IGROV1 ovarian came to 1.44 µM; with SNB-19 CNS it was 1.46 µM; in the test on 786-0 renal it was 2 µM; in the test on SF-268 CNS, 3.72 µM.

For the compound `COc1cc(C2CC(c3ccccc3)=NN2C(C)=O)cc(OC)c1OC` (stereo not given), the GI50 with NCI-H23 lung was 5.91 µM; with RPMI-8226 leukemia, 2.56 µM; in the test on UO-31 renal, 7.09 µM; in the test with SK-OV-3 ovarian, 3.91 µM; in the test on ACHN renal, 5.88 µM; with OVCAR-5 ovarian, 70.7 µM. Moreover, the GI50 in the test on IGROV1 ovarian was 4.66 µM; with SNB-19 CNS, 5.63 µM; in the test with 786-0 renal, 5.93 µM; in the test on SF-268 CNS, 5.37 µM. Also, the TGI was above 100 µM in the test on NCI-H23 lung; above 27.7 µM in the test on RPMI-8226 leukemia; above 100 µM in the test with UO-31 renal; above 100 µM with SK-OV-3 ovarian; above 100 µM with ACHN renal; above 100 µM in the test with OVCAR-5 ovarian. The TGI with IGROV1 ovarian, in the test on SNB-19 CNS, with 786-0 renal and in the test with SF-268 CNS was above 100 µM throughout.

`COc1cc(-n2cnc(-c3ccc(Cl)cc3)c2)cc(OC)c1OC`: the GI50 was 17.9 µM in the test on NCI-H23 lung; 14.7 µM in the test on RPMI-8226 leukemia; 15.6 µM in the test with UO-31 renal; 21.2 µM in the test with SK-OV-3 ovarian; 19.8 µM in the test with ACHN renal; 18.6 µM in the test on OVCAR-5 ovarian. Moreover, the GI50 in the test on IGROV1 ovarian was 30.7 µM; in the test on SNB-19 CNS it was above 100 µM; in the test with 786-0 renal it was above 100 µM; with SF-268 CNS it was 22.9 µM. Also, the TGI in the test with NCI-H23 lung is 35 µM; in the test on RPMI-8226 leukemia it was 32.2 µM; with UO-31 renal it was 40.5 µM; in the test with SK-OV-3 ovarian, 52.2 µM; in the test with ACHN renal, 57.3 µM; in the test on OVCAR-5 ovarian, 45.4 µM. The TGI is above 100 µM in the test on IGROV1 ovarian, above 100 µM in the test with SNB-19 CNS, above 100 µM in the test on 786-0 renal and 63.2 µM with SF-268 CNS.

For `CCOC(=O)C(=O)Nc1c(C)cccc1C(C)C`, the TGI in the test with NCI-H23 lung, with RPMI-8226 leukemia, in the test with UO-31 renal, with SK-OV-3 ovarian, in the test on ACHN renal and with OVCAR-5 ovarian was above 100 µM each time. For the same compound, the TGI with IGROV1 ovarian, in the test on SNB-19 CNS, in the test on 786-0 renal and in the test on SF-268 CNS was above 100 µM throughout.

As for `COc1ccc(C(=O)CC(=O)C(=O)Nc2ccc(C)c(C)c2)cc1`, the TGI in the test with NCI-H23 lung was above 100 µM; in the test with RPMI-8226 leukemia it was above 68 µM; in the test on UO-31 renal, above 100 µM; in the test with SK-OV-3 ovarian it was above 100 µM; with ACHN renal, above 100 µM; in the test with OVCAR-5 ovarian, above 93.7 µM. The TGI in the test on IGROV1 ovarian, in the test on SNB-19 CNS, in the test with 786-0 renal and in the test with SF-268 CNS was above 100 µM throughout.
